How the values were obtained:
GBM = assay: Phase 1/2 study Part B: tumor response, GBM; assay type: in vivo, human; settings: 10 evaluable GBM patients
Description: In Part B, subjects may start Compound 1 at the MTD and/or a lower dose level based on safety, PK and PD data from Part A. Approximately 150 subjects will be treated and evaluated for safety and preliminary antitumor activity after every two cycles of therapy. Tumor types include non-small cell lung cancer (NSCLC), glioblastoma multiforme (GBM), hepatocellular carcinoma (HCC), gastrointestinal neuroendocrine tumor of non-pancreatic origin (NET), diffuse large B-cell lymphoma (DLBCL), multiple myeloma (MM), and hormone receptor positive breast cancer (HRPBC). Up to 20 subjects will be enrolled in each tumor type.
Subjects will be evaluated for efficacy every 2 cycles through cycle 6 and every 3 cycles thereafter. The primary efficacy variable is response. Tumor assessments, including imaging (CT, MRI and/or PET) of the chest and abdomen and other sites as appropriate, will be performed during Screening. Subjects with brain lesions will also have brain scans at Screening and during follow-up tumor assessments. […] Subjects will be evaluated for tumor response on completion of Cycle 2, 4, 6, and so on. […]
For Part B, efficacy variables to be analyzed include tumor response at the end of treatment, the proportion of subject alive and progression-free, and duration of response. […]

U87MG tumors = assay: CD31 immunohistochemistry in U87MG tumors; assay type: in vivo, mice; settings: 5 mg/kg BID oral for 4 days; p<0.001
Protocol: Mechanism of action studies. To determine the mechanism of action of Compound 1, mice bearing U87MG tumors of approximately 500 mm^3 were dosed orally with vehicle or Compound 1 at 5 mg/kg BID for 4 days. The positive control, rapamycin, was dosed at 4 mg/kg Q3D for 4 days. Two hours after the 7th dose of Compound 1 on day 4, animals were euthanized and tumors were dissected out and snap frozen in liquid nitrogen. In the rapamycin-treated group tumors were collected at 2 hour after the 2nd dose on day 4. The tumors were processed for immunohistochemistry (IHC) or TUNEL.
Immunohistochemistry. Five to ten micron (5-10 μm) thick cryostat sections were used for IHC. The expression of the cell proliferation marker Ki67 was evaluated by IHC using anti-Ki67 antibody. […] The sections were visualized with a Nikon E800 microscope equipped with fluorescence detection equipment and a digital camera attached to a computer.
Quantitation of Immunohistochemistry. The tissues sections processed for apoptosis or immunostained for proliferating cells (Ki67) or blood vessels were quantitated using Metamorph software. Using 20× objective, 5 different fields from each section, 2-4 sections from each tumor, and 3-4 tumors from each treatment group or control were used for quantitation. The area of interest was expressed as the percent threshold area of the total area. […]

## CO[C@H]1CC[C@H](N2C(=O)CNc3ncc(-c4ccc(C(C)(C)O)nc4)nc32)CC1 [Compound 1, 7-(6-(2-hydroxypropan-2-yl)pyridin-3-yl)-1-((1r,4r)-4-methoxycyclohexyl)-3,4-dihydropyrazino-[2,3-b]pyrazin-2(1H)-one]
GBM
  clinical activity, defined as 6-month Progression-Free Survival: No signs of clinical activity
U87MG tumors
  reduction of CD31-positive blood vessels compared with vehicle: 50%

— patent US9493466B2, “Treatment of cancer with TOR kinase inhibitors” (Signal Pharmaceuticals, LLC, priority 2011, dated 2016)
